Values of other authors in patent US10188693B2, “Methods for treatment of atherosclerosis” (Stealth BioTherapeutics Corp, priority 2012, dated 2019).

Tests used:
[1] = system: spinal cord injury in rodents; conditions: administered both pre- and post-injury; cited from earlier work
hepatitis C virus (HCV) = conditions: in vitro model of HCV infection (alone and with interferon); cited from earlier work

## CC(C)c1c(C(=O)Nc2ccccc2)c(-c2ccccc2)c(-c2ccc(F)cc2)n1CC[C@@H](O)C[C@@H](O)CC(=O)O [atorvastatin]
[1]
  effect on spinal cord injury, in words: promoting locomotion and tissue sparing, as well as reducing inflammation
Hepatitis C virus (HCV)
  anti-HCV effect, in words: anti-HCV effect

## O=C(O)C[C@H](O)C[C@H](O)/C=C/c1c(C2CC2)nc2ccccc2c1-c1ccc(F)cc1 [pitavastatin]
Hepatitis C virus (HCV)
  anti-HCV effect, in words: anti-HCV effect

## CC[C@H](C)C(=O)O[C@H]1C[C@@H](C)C=C2C=C[C@H](C)[C@H](CC[C@@H]3C[C@@H](O)CC(=O)O3)[C@H]21 [lovastatin]
Hepatitis C virus (HCV)
  anti-HCV effect, in words: anti-HCV effect
